Measured values taken from publication PMC9960243, “Cytotoxic and Antileishmanial Effects of the Monoterpene β-Ocimene” (Pharmaceuticals, 2023).
Where two headings read alike, the source gives them in different places.

Assays:
[1] = tested on: L. amazonensis axenic amastigotes; set-up: method as in PMID 23457021; details: read-out: IC50 against axenic amastigotes of L. amazonensis; cited from earlier work
[2] = Cytotoxic effect on mammalian cells, Vero; assay type: cell-based; details: African green monkey, Vero cells
[3] = Cytotoxic effect on mammalian cells (MTT, 72 h), RAW 264.7; assay type: cell-based; details: mouse, RAW 264.7 macrophages; for CC50 at 72 h: pH 7.2, MTT
Protocol: (§1) RAW 264.7 lineage macrophages (available from the cell bank in Rio de Janeiro, Brazil) were used, grown in sterile bottles with DMEM medium, pH 7.2 containing 10% FBS and 1% penicillin 100 U/mL and streptomycin 100 μg/mL, and kept in an oven at 37 °C and 5% CO2.
(§2) In a 96-well plate, RAW 264.7 macrophages were plated at 10^5 cells per well in 100 μL of supplemented DMEM medium. The plate was incubated for 3 h at 37 °C and 5% CO2 for cell adhesion. Afterwards, to remove non-adhered cells, washing with PBS (phosphate-buffered saline solution) was performed. Furthermore, 100 μL of DMEM supplemented with β-ocimene (3.12–400 μM), and the reference drugs, meglumine antimoniate (250–2000 μM) and amphotericin B (0.062–0.5 μM) were then added to the wells, with oven incubation at 37 °C, and 5% CO2 for 72 h. Then, 10 μL of MTT (5 mg/mL) per well was then added, being kept for another 4 h in an oven at 37 °C and 5% CO2. The supernatant was removed, and 100 µL of DMSO was added to all wells. After 30 min of stirring, readings were taken at 540 nm. DMEM supplemented with 0.5% DMSO was used as a negative control and considered as 100% macrophage viability. The selectivity index for each treatment was calculated by dividing the CC50 by the IC50, or EC50 [32].

[4] = tested on: RAW 264.7 macrophages infected with Leishmania amazonensis; test: Treatment of infected macrophages (intra-macrophagic amastigotes, 72 h); assay type: cell-based; details: for EC50: infected RAW 264.7 macrophages, read-out: Intramacrophagic Amastigotes EC50
Protocol: In a 24-well plate with 13 mm round sterile cover slips, RAW 264.7 macrophages were added (at a concentration of 10^5 cells to 1 mL of supplemented DMEM. For cell adhesion, the plates were incubated at 37 °C and 5% CO2 for 3 h. Three washes were then performed with PBS at 37 °C to discard non-adherent cells, after which 1 mL of DMEM supplemented (stationary phase) promastigote forms of L. amazonensis was added at the ratio of 10 promastigotes per macrophage. The plate was then incubated at 5% CO2 and 37 °C for 4 h. After infection, the medium was aspirated and the treatment was added using 1 mL of DMEM supplemented with β-ocimene (3.12–25 μM) with the reference drugs, meglumine antimoniate (1.56–200 μM) and amphotericin B (0.031–2 μM), this was subsequently incubated at 37 °C and 5% CO2 for 72 h. Finally, the coverslips were removed, fixed, stained, and mounted on permanent slides using Entellan. The number of infected macrophages and the number of parasites per macrophage were counted: 300 cells were evaluated on each slide at 1000× magnification. The infection index was calculated by multiplying the number of infected macrophages by the number of amastigotes per infected macrophage. The negative control was performed using DMEM with 0.5% DMSO. The supernatant was removed at the end of the experiment and kept at −20 °C for later use in nitric oxide dosing tests.

[5] = tested on: Leishmania (Leishmania) amazonensis promastigotes; test: microbe, parasite or virus in culture; assay type: cell-based; details: 72 h; for IC50: MTT
Protocol: (§3) Strains of Leishmania (Leishmania) amazonensis (IFLA/BR/67/PH8) (promastigote form) were cultivated in Schneider’s insect medium (supplemented with 10% FBS, and 1% antibiotic solution), at 26 °C, and at pH 7, in a biological oxygen demand (BOD) incubator. To transform the promastigote forms into axenic amastigotes, the temperature was increased to 32 °C and the pH of the medium was adjusted to 5.5 [14].
(§4) Promastigote and axenic amastigote growth inhibition was tested as previously described by DIAS et al.. In a 96-well plate, parasites were seeded at 10^6 parasites per well in 100 μL of supplemented Schneider medium. The parasites were treated with differing concentrations of β-ocimene (1.56–12.5 μM), and reference drugs, meglumine antimoniate (500–40,000 μM) and amphotericin B (0.062–0.5 μM). The plates were incubated in a BOD incubator at 26 °C for 72 h. Afterwards, 10 µL of MTT (5 mg/mL) was added to each well, and the plate was incubated again for 4 h, when 50 µL of 10% SDS was added. Absorbances were then measured using an ELISA plate reader (BioSystems model ELx800, Curitiba, PR, Brazil) at 540 nm. The negative control consisted of Schneider medium with 0.5% DMSO and was considered as 0% inhibition.

[6] = tested on: Leishmania (Leishmania) amazonensis axenic amastigotes; test: microbe, parasite or virus in culture; assay type: cell-based; details: 72 h; for EC50: MTT
Protocol: as §3, §4

[7] = tested on: L. infantum promastigotes; set-up: method as in PMID 31151304; details: read-out: IC50 against L. infantum promastigotes; cited from earlier work
[8] = tested on: L. amazonensis promastigotes; set-up: method as in PMID 19321295; details: read-out: IC50 against L. amazonensis promastigotes; cited from earlier work
[9] = tested on: RAW 264.7 macrophages; test: Phagocytosis assay (stained zymosan); assay type: cell-based; details: 3.12–25 μM, 72 h, macrophages not stimulated by L. amazonensis
Protocol: RAW 264.7 macrophages were plated in a 96-well plate at 10^5 cells per well in 100 μL of DMEM medium containing different concentrations of β-ocimene (3.12–25 μM). The plate was incubated for 72 h at 37 °C and 5% CO2; after which 10 μL of stained zymosan per well was added, and the plate conditioned for 30 min at 37 °C. Then, 100 μL of Baker’s fixative (4% v/v formaldehyde, 2% w/v sodium chloride, and 1% w/v calcium acetate in distilled water) was added to stop phagocytosis, and 30 min later, the plate was washed with 0.9% saline to remove the zymosan not phagocytized by macrophages. Afterwards, the supernatant was removed and 100 μL of extraction solution was added and solubilized in a Kline shaker. Absorbances were measured at 540 nm.

[10] = tested on: RAW 264.7 macrophages uninfected and infected with Leishmania amazonensis; test: Th1/Th2 cytokine (ELISA) and nitric oxide (Griess) production in macrophage supernatants; assay type: cell-based; details: 72 h
Protocol: Modulation of Th1 (TNF-α, IL-12), Th2 (IL-10, IL-6), and NO cytokine production was investigated in the supernatants of infected macrophages, whether treated or untreated with β-ocimene. Cytokine concentration (pg/mL) in macrophage supernatants was determined using the ELISA sandwich technique according to the manufacturer’s (eBioscience) instructions, using interpolation with a standard curve of recombinant cytokines. Optical density was read at 450 nm using a microplate spectrophotometer.
Nitrite levels from the supernatants of the infected macrophages, whether treated or untreated with β-ocimene, were used indirectly to estimate NO production. The NO concentration (µM) was determined using the Griess reaction following a previously described methodology, by interpolation with a standard curve with NaNO2.
LPS (1 μg/mL) plus IFN-γ (1000 U/mL) were used as a positive control.

[11] = tested on: Leishmania amazonensis promastigote plasmatic membrane; assay type: cell-based; details: not told
Protocol: Plasma membrane integrity in promastigote forms of L. amazonensis treated with β-ocimene was evaluated using the SYTOX green dye method. Promastigote forms in logarithmic growth were seeded in Schneider medium and exposed to β-ocimene at concentrations corresponding to IC50, 2 × IC50 and 4 × IC50 in the presence of SYTOX green dye (5 μM) for 7 h at 26 °C in a BOD incubator. The plates were then read in a fluorescence reader with an emission filter of 523 nm and excitation at 488 nm.

[12] = tested on: RAW 264.7 macrophages; test: Lysosomal activity (neutral red uptake); assay type: cell-based; details: 12.5 and 25 µM, 72 h, macrophages not stimulated by L. amazonensis
Protocol: RAW 264.7 macrophages were added (10^5 cells per well) to the 96-well plate in 100 μL of DMEM with different concentrations of β-ocimene (3.12–25 μM). The plate was incubated for 72 h at 37 °C and 5% CO2. Afterwards, 10 μL of neutral red 0.2% DMSO solution was added and incubated for 30 min. The supernatant was then removed, and the wells were washed with 0.9% saline at 37 °C, and 100 μL of extraction solution was added to dissolve the neutral red inside the lysosomal secretion vesicles. After 30 min on a Kline shaker, the plate was read at 540 nm.

[13] = tested on: macrophages infected with L. amazonensis; test: Measurement of reactive oxygen species (H2DCFDA); assay type: cell-based; details: RAW 264.7 macrophages infected with L. amazonensis, 72 h
Protocol: ROS levels, as produced by the macrophages infected with L. amazonensis and treated with β-ocimene, were determined by the H2DCFDA test. Macrophages were infected according to Section 2.5 and treated with β-ocimene (3.12–12.6 µM) for 72 h. At the end of the period, 10 µL of 20 µM H2 DCFDA dye was added. The plate was incubated at 37 °C for 30 min (in the dark), and the fluorescence intensity was measured using a spectrofluorometer (FLx800) with excitation at 485 nm and emission at 528 nm.

[14] = tested on: Promastigote forms of L. amazonensis; test: Parasite morphological evaluation using atomic force microscopy (AFM); assay type: cell-based, Leishmania amazonensis; details: 1 × IC50 and 2 × IC50, 72 h
Protocol: Promastigote forms of L. amazonensis were grown in 96-well plates at a concentration of 10^6 per well in complete Schneider medium. β-ocimene was added at concentrations equivalent to IC50, 2 × IC50, and 4 × IC50, and incubated at 26 °C for 72 h in BOD, and the parasites were then washed twice with ice-cold PBS (under 1100× g for 15 min at room temperature), and then fixed with 2.5% (v/v) glutaraldehyde in PBS, pH 7.2, for 1 h. Morphological analysis using AFM (TT-AFM equipment, AFM Workshop-USA), at a resonant frequency of approximately 242 kHz, was then performed.

[15] = tested on: Vero cells; test: Cytotoxic effect on mammalian cells, Vero; assay type: cell-based
[16] = tested on: RAW 264.7 macrophages; test: Cytotoxic effect on mammalian cells (MTT, 72 h), RAW 264.7; assay type: cell-based; details: MTT
Protocol: as §1, §2

[17] = Leishmania amazonensis, RAW264.7, 72 h
[18] = RAW 264.7 macrophages infected with L. amazonensis
[19] = Leishmania, read-out: % Cytotoxicity Promastigotes
[20] = Leishmania, read-out: % Cytotoxicity Axenic Amastigotes

NC(=S)NN=Cc1ccc([N+](=O)[O-])cc1 [4-nitrobenzaldehyde thiosemicarbazone]
IC50 [1]: 8 µM

C[C@@H]1[C@H](O)[C@@H](C)/C=C/C=C/C=C/C=C/C=C/C=C/C=C/[C@H](O[C@@H]2O[C@H](C)[C@@H](O)[C@H](N)[C@@H]2O)C[C@@H]2O[C@](O)(C[C@@H](O)C[C@@H](O)[C@H](O)CC[C@@H](O)C[C@@H](O)CC(=O)O[C@H]1C)C[C@H](O)[C@H]2C(=O)O [Amphotericin B, reference compound]
CC50 [2]: 2.46 ± 0.6 µM
CC50 at 72 h [3]: 0.39 ± 0.03 µM
EC50 [4, 17]: 0.13 µM
IC50 ([5]; Leishmania): 0.35 ± 0.09 µM
EC50 ([6]; Leishmania): 0.51 ± 0.02 µM

Cc1ccc(C(C)C)cc1O [carvacrol]
IC50 [7]: 65 µM

C=C(C)[C@H]1CC=C(C)CC1 [limonene]
IC50 [8]: 252 µM

Cc1ccc(C(C)C)c(O)c1 [thymol]
IC50 [7]: 48 µM

C=C/C(C)=C/CC=C(C)C [β-ocimene, beta-3,7-dimethyl-1,3,6-octatriene]
phagocytic activity (zymosan particles) [9]: no increase in phagocytosis of zymosan particles
IL-6 levels [10, 18]: decrease
IL-10 levels [10, 18]: decrease in levels of IL-10
IL-12 levels [10, 18]: did not affect IL-12 levels
NO production [10, 18]: increase
TNF-α production [10, 18]: increase in the production of TNF-α
cytokine levels of uninfected macrophages compared to the control ([10]; uninfected RAW 264.7 macrophages): no significant differences
CC50 [2]: 299 ± 7.17 µM
cytotoxicity at 50 µM ([2]; 50 µM): 1.14 ± 0.1%
cytotoxicity at 100 µM ([2]; 100 µM): 6.04 ± 0.41%
cytotoxicity at 200 µM ([2]; 200 µM): 36.2 ± 4.26%
cytotoxicity at 400 µM ([2]; 400 µM): 69.2 ± 4.9%
cytotoxicity at 72 h, 50 µM ([3]; pH 7.2, 50 µM): 1.17 ± 0.09%
cytotoxicity at 72 h, 100 µM ([3]; pH 7.2, 100 µM): 46.3 ± 4.11%
cytotoxicity at 72 h, 200 µM ([3]; pH 7.2, 200 µM): 56.6 ± 5.92%
cytotoxicity at 72 h, 400 µM ([3]; pH 7.2, 400 µM): 81.7 ± 8.16%
CC50 at 72 h [3]: 114 ± 8.2 µM
plasmatic membrane permeability (SYTOX green fluorescent signal) [11]: significant increase in permeability
EC50 [4, 17]: 0.89 ± 0.03 µM
times more selective than amphotericin B (selectivity index) ([4]; intra-macrophagic amastigote form): 42.88 times
infection index (infection rate) ([4]; low concentrations, 72 h): able to reduce
number of amastigotes per macrophage ([4]; low concentrations, 72 h): able to reduce
percentage of infected macrophages ([4]; low concentrations, 72 h): able to reduce
cytotoxicity at 1.56 µM [5, 19]: 27.3 ± 2.16%
cytotoxicity at 3.12 µM [5, 19]: 70.2 ± 2.2%
cytotoxicity at 6.25 µM [5, 19]: 81.4%
cytotoxicity at 12.5 µM [5, 19]: 100%
IC50 ([5]; Leishmania): 2.78 ± 0.17 µM
cytotoxicity at 1.56 µM [6, 20]: 59.1 ± 2.4%
cytotoxicity at 3.12 µM [6, 20]: 79.1 ± 3.7%
cytotoxicity at 6.25 µM [6, 20]: 100%
cytotoxicity at 12.5 µM [6, 20]: 100%
EC50 ([6]; Leishmania): 1.12 ± 0.05 µM
lysosomal volume (neutral red retention) [12]: increase in the volume of lysosomal vesicles
ROS production [13]: increase
morphological alterations (AFM) [14]: Loose membrane texture and abnormalities in the cell shape

Meglumine antimoniate [reference compound]
CC50 [15]: 22800 µM
CC50 [16]: 15900 µM
EC50 ([4]; 72 h): 578 ± 19.1 µM
IC50 [5]: 2150 ± 31 µM
EC50 [6]: 1730 ± 36.8 µM
